Results taken from patent US7960552B2, “Farnesoid X receptor agonists” (GlaxoSmithKline LLC, priority 2006, dated 2011).
“Also recorded” adds a separate entry of the source.

How the values were obtained:
[1] = test system: high-fat diet fed obese mice; test: Effects of FXR agonists on diet induced obese mice; format: in vivo, C57BL mice; settings: 10, 30 and 100 mg/kg twice a day orally; for serum NEFA / serum cholesterol / serum glucose / serum glycerol / serum insulin / serum triglyceride: end of study; for body fat mass: four weeks of treatment, QMR
Experimental: Methods: Male 20 to 25 g C57BL mice (Charles River, Indianapolis, Ind.) were housed at 72° F. and 50% relative humidity with a 12 h light and dark cycle and fed with standard rodent chow (Purina 5001, Harlan Teklad, Indianapolis, Ind.) or a high-fat diet (TD93075, Harlan Teklad, Indianapolis, Ind.) for eight weeks. After three weeks, mice on high-fat diet were randomized to vehicle or treatment groups based on fasting glucose and body weight. Starting from the fifth week, mice were given either vehicle or the compound in Example 1 (10, 30 and 100 mg/kg) or the compound in Example 5 (10, 30, 100 mg/kg) twice a day orally. Mice on the standard rodent chow were also given vehicle as a control. Body composition was measured using the quantitative magnetic resonance (QMR) method before and at the end of compound treatment. […] Serum chemistry levels were measured using the Instrumentation Laboratory Ilab600™ clinical chemistry analyzer (Instrumentation Laboratory, Boston, Mass.).

[2] = test system: hepatic stellate cells (HSC); settings: cultured HSCs; cited from earlier work
[3] = test system: rodent models of hepatic fibrosis; settings: multiple rodent models; cited from earlier work
db/db mice = settings: oral 30 mg/kg, bid; cited from earlier work
[4] = test system: bile duct-ligated mouse model; settings: cited from earlier work
[5] = test system: high-fat diet induced insulin resistant, glucose intolerant, and obese mouse model; settings: mice on high-fat diet, cited from earlier work
[6] = 100 mg/kg twice a day orally, 100 mg/kg

**Q.** For CC(C)c1onc(-c2c(Cl)cccc2Cl)c1COc1ccc(-c2ccc3nc(C(=O)O)ccc3c2)cc1 [Example 1, 6-[4-({[3-(2,6-Dichlorophenyl)-5-(1-methylethyl)-4-isoxazolyl]methyl}oxy)phenyl]-2-quinolinecarboxylic Acid], which “serum NEFA” value [1] is on record?
**A.** Its value is “decreased”.

**Q.** What about the serum cholesterol [1] of the same molecule?
**A.** The serum cholesterol was “decreased”.

**Q.** And the serum glucose [1]?
**A.** Its serum glucose is “decreased”.

**Q.** What about the serum glycerol [1] of the same molecule?
**A.** The serum glycerol was “decreased”.

**Q.** And the serum insulin [1]?
**A.** Its serum insulin is “decreased”.

**Q.** And the serum triglyceride [1]?
**A.** Its serum triglyceride is “decreased”.

**Q.** And the body fat mass [1]?
**A.** Its body fat mass is “decreased”.

**Q.** Which “serum NEFA” value [1] does the source give for CC(C)c1onc(-c2c(Cl)cccc2Cl)c1COc1ccc(-c2ccc3cc(C(=O)O)ncc3c2)cc1 [Example 5, 7-[4-({[3-(2,6-Dichlorophenyl)-5-(1-methylethyl) -4-isoxazolyl]methyl}oxy)phenyl]-3-isoquinolinecarboxylic acid] here?
**A.** Its value is “decreased”.

**Q.** What about the serum cholesterol [1] of the same molecule?
**A.** The serum cholesterol was “decreased”.

**Q.** And the serum glucose [1]?
**A.** Its serum glucose is “decreased”.

**Q.** What about the serum glycerol [1] of the same molecule?
**A.** Its serum glycerol is “decreased”.

**Q.** What about the serum insulin [1] of the same molecule?
**A.** Its serum insulin is “decreased”.

**Q.** What about the serum triglyceride [1] of the same molecule?
**A.** The serum triglyceride was “decreased”.

**Q.** What about the body fat mass [1] of the same molecule?
**A.** Its body fat mass is “decreased”.

**Q.** Which results are given for CC[C@H]1[C@@H](O)[C@@H]2[C@H](CC[C@]3(C)[C@@H]([C@H](C)CCC(=O)O)CC[C@@H]23)[C@@]2(C)CC[C@@H](O)C[C@@H]12 [Example 6EtCDCA, 6-ethyl-chenodeoxycholic acid]?
**A.** expression of fibrotic marker α1(I)collagen [2]: decreased; expression of fibrotic marker α-smooth muscle actin [2]: decreased; development of hepatic fibrosis [3]: prevent; resolution of hepatic fibrosis [3]: promote

**Q.** Which results are given for CC(C)c1onc(-c2c(Cl)cccc2Cl)c1COc1ccc(/C=C/c2cccc(C(=O)O)c2)c(Cl)c1 [GW4064]?
**A.** NEFA (db/db mice): decreased; total cholesterol (db/db mice): decreased; triglyceride (db/db mice): decreased; bacterial overgrowth [4]: decreased; mucosal barrier [4]: improved; translocation of bacteria to mesenteric lymph nodes [4]: decreased; serum glucose [5, 6]: decreased; serum insulin [5, 6]: decreased; serum triglyceride [5, 6]: decreased; glucose tolerance ([5]; 100 mg/kg twice a day orally, GTT, 100 mg/kg): corrected glucose intolerance; also recorded: improve; high-fat diet induced body weight gain ([5]; 100 mg/kg twice a day orally): reduced; liver triglyceride content ([5]; 100 mg/kg twice a day orally): reduced; body fat mass [5]: decrease; body weight [5]: decrease; serum total cholesterol [5]: decrease
